In patent US11786608B2, “Isoquinolinyl triazolone complexes” (Takeda Pharmaceutical Company Limited, priority 2016, dated 2023):

Molecular target: human BTK (Homo sapiens (Human), UniProt Q06187)
Test: BTK inhibition assay (phosphorylation of 5-FAM-labeled substrate, Caliper LC-3000)
Format: biochemical
Conditions: residues 382 to 659 of human BTK; 60 minutes at room temperature
Source text: The activity of compound of Formula 1, stereoisomer thereof, or tautomers of the compound as Formula 1 or stereoisomer thereof, as BTK inhibitors may be determined by a variety of methods, including in vitro and in vivo methods. The following in vitro assay measures a test compound's ability to inhibit BTK-mediated phosphorylation of a FAM-labeled substrate, 5-FAM-[…]-NH2.
Purified BTK may be obtained as follows (Clone SBVC-1603_9P is used). A cDNA sequence encoding residues 382 to 659 of human BTK is cloned into the vector pSXB4. This construct engineers an in-frame translational fusion with the Glutathione-S-Transferase (GST) protein for use in affinity purification. The fusion protein derived from this construct contains a protease recognition sequence to liberate the BTK from the GST affinity tag. High-titer baculoviral stocks, generated using the Bac-to-Bac® system (Invitrogen), are used to express the recombinant protein in Spodoptera frugiperda Sf9 cells in 10 L Wave bags. Recombinant proteins are isolated from cellular extracts by passage over Glutathione Sepharose 4B (GE Healthcare) and the BTK moiety is released from the GST affinity tag by treatment with PreScission protease. […] The purity of the fractions is assessed by SDS PAGE and the peak protein fractions are pooled and concentrated using Amicon Ultra-15 Centrifugal Filter Devices (Millipore).

human BTK, sequence (Q06187 382-659): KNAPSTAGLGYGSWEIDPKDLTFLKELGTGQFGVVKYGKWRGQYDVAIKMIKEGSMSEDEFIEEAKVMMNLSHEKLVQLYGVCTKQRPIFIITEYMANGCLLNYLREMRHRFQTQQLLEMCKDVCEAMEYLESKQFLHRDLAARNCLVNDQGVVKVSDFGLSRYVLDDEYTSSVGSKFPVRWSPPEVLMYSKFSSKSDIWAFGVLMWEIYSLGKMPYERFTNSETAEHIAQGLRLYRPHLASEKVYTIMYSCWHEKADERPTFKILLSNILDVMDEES

BTK Inhibition (pIC50): >8.7
SMILES: C=CC(=O)N1CC[C@H](Oc2nc(-c3n[nH]c(=O)[nH]3)cc3ccccc23)C1 [Example 1, (S)-3-(1-((1-acryloylpyrrolidin-3-yl)oxy)isoquinolin-3-yl)-1H-1,2,4-triazol-5(4H)-one]
